In one series the test system is HIV-1. Conditions: read-out: IC50, inhibition of HIV-1 entry (attachment assay); compounds pre-equilibrated with the cells rather than with the virus; value represents lower boundary of actual activity. An excerpt:
An attachment assay, described by Lackman-Smith et al., 2008, was used.

The subject of another series is cells. Conditions: highest tested concentration 100 μM.

Values joined by “and” are separate entries in the source; they are usually repeats but may differ in a detail not shown here. Identical values can stand only once. Non-standard residues stand in square brackets, D forms with d. Residues, ends and D or L forms follow the SMILES beside them. dBip = N[C@H](Cc1ccc(-c2ccccc2)cc1)C(=O)O

In general, IC50 refers to the concentration needed to halve the response being measured. Regarding `CC[C@H](C)[C@@H]1NC(=O)[C@H](CC(=O)O)NC(=O)[C@H](Cc2ccccc2)NC(=O)[C@H](CC(=O)O)NC(=O)[C@@H](CC(=O)O)NC(=O)[C@@H](Cc2ccc(-c3ccccc3)cc2)NC(=O)[C@H]2CCCN2C(=O)CNC(=O)[C@@H](CCC(=O)O)NC(=O)[C@@H](Cc2ccc(O)cc2)NC(=O)[C@H](CCCCN)NC(=O)[C@@H](CC(C)C)NC(=O)[C@@H](CC(=O)O)NC(=O)[C@H]([C@@H](C)CC)NC1=O` [2-s4-98rp-39m-60-1_MC] (cyclo(DFDII[dD][dL]K[dY][dE]G[dP][dBip][dD])), the concentration for half-maximal inhibition (IC50) in the series with HIV-1 was ≤ 1640 nM and 1640 nM. Besides, in the series with cells, the “cytotoxicity (none observed up to the highest tested concentration)” value is above 100 µM.

Values taken from patent publication US8361969B2, “Designer cyclic peptides—HIV gp120 antagonists and their applications” (priority 2011, dated 2013).
